The record followed here is PMC8297402, “Trifluoromethyl-substituted 3,5-bis(arylidene)-4-piperidones as potential anti-hepatoma and anti-inflammation agents by inhibiting NF-кB activation” (Journal of Enzyme Inhibition and Medicinal Chemistry, 2021).

One may read the inhibition as how much of the control response was suppressed.

pIC50: −log10 of the molar value. Where two headings read alike, the source gives them in different places.

The subject of one experiment is HepG2. Put plainly: Modified MTT cytotoxicity assay, HepG2. The experiment is classed as cell-based, Human. The following applies: for pIC50: Homo sapiens; for SI (selectivity index) HepG2: quotient of IC50 for normal (LO2) and malignant (HepG2) cells. In a few lines: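 HepG2 grown in DMEM, SMMC-7721 and LO2 in RPMI 1640, each with 10% FBS; ~8 × 10^3 cells/well. Compounds at 0.3125-10 μg/mL for 24 h at 37 °C, then MTT for 4 h. IC50 as mean of three replicates.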
Background: Tetrazolium assays rely on reduction of a dye to a coloured formazan, in cell work by metabolically active cells.

The test system of a further experiment is IL-6. Nature of the experiment: ELISA of IL-6 release in LPS-stimulated RAW264.7 cells. The format is cell-based, mouse. The following applies: Mus musculus, RAW264.7, BAPs (5 μM) + LPS (1 μg/mL), RAW264.7, ELISA; read-out: Inhibition rate IL-6. In a few lines: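 RAW264.7 cells pretreated 2 h with compound at 5.0 μM (PDTC 30 μM as reference), then stimulated with LPS 1.0 μg/mL for a further 22 h. Secreted TNF-α and IL-6 in the culture media quantified by ELISA.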
A general note: In an ELISA, binding on a coated surface is turned into a signal by an enzyme label.

With `O=C1C(=Cc2cccc(C(F)(F)F)c2)CN(S(=O)(=O)c2ccc(C(F)(F)F)cc2)CC1=Cc1cccc(C(F)(F)F)c1` [BAP 16], the pIC50 is about 6.22 in the experiment with HepG2 (HepG2, 24 h, MTT, 24 h incubation, three replicates, read-out: Cytotoxicity IC50 HepG2); 6.05 in the experiment with HepG2 (HepG2, average of HepG2 and SMMC-7721, read-out: Cytotoxicity against HCC cells, average). Besides, the “SI value, average” value in the experiment on HepG2 (average of SI for HepG2 and SMMC-7721) is reported as 22.3. Further, the results for the “SI (selectivity index) HepG2” value in the experiment on HepG2 and in the experiment on HepG2 (listed as 16) were “ca. 29.7” and 29.7, respectively. In the experiment with IL-6, the inhibition at 5 µM was about 79.2%.
